Here are results for ten compounds from article PMC11277446, “Discovery of Cell-Permeable Allosteric Inhibitors of Liver Pyruvate Kinase: Design and Synthesis of Sulfone-Based Urolithins” (International Journal of Molecular Sciences, 2024).

By IC50 is commonly meant the concentration that inhibits the measured activity by half. As a reminder, the inhibition is the share of the control response that was lost under treatment. The term melting point denotes the temperature, or range, at which the solid turns liquid.

Each structure is given as a SMILES string.

Data set [1] concerns the target T1, PKL (Homo sapiens, UniProt P30613).
T1 construct: HepG2 KO cells were lysed and protein lysated with CelLytic M; host or cells: HepG2 PKM CRISPR KO cells
Nature of the data set: Pyruvate kinase activity kinetic assay on HepG2 KO (PKL only) cell protein lysate. It counts as biochemical. The conditions noted are these: read-out: IC50 of PKL enzymatic activity inhibition.

Data set [2] concerns the target T1, PKL. Described as above. It counts as biochemical. The procedure:
(§1) HepG2 KO cells were lysed and protein lysated with CelLytic M (C2978, Sigma-Aldrich, St. Louis, MO, USA) lysis buffer. The effect of 10 µM compounds on pyruvate kinase activity on protein lysate was measured with the Pyruvate Kinase Assay Kit (ab83432, Abcam, Cambridge, UK), followed by the manufacturer’s instructions. 2 × 10^4 HepG2 WT cells and 1 × 10^5 HepG2 KO cells were seeded into 96-well plates for a pyruvate kinase activity assay on cells. Drugs were treated at 20 µM concentration on the cell for 4 h and washed with 250 µL of PBS. Cells were lysed with 50 µL PK assay buffer (ab83432, Abcam) and started reaction and kinetic O.D measurement with 50 µL PK assay buffer that contained the assay component (ab83432, Abcam). O.D. values were measured with a microplate reader (Hidex Sense Beta Plus, Turku, Finland) at 570 nm wavelength.

In data set [3] the test system is PKL. The following applies: Figure 2, background data; cited from earlier work.
The test system of data set [4] is PKL. More on the design: method as in PMID 36753880. The conditions noted are these: 10 μM in liver cell lysate; cited from earlier work.
The target of another data set is T2, PKL in HepG2 KO cells (Homo sapiens, UniProt P30613).
T2 construct: host or cells: HepG2 PKM CRISPR KO cells
Nature of the data set: Pyruvate kinase activity assay on compound-treated HepG2 KO cells (whole-cell assay). The class given is cell-based. The procedure:
as §1

The next data set deals with FASN. Nature of the data set: Western blot of DNL pathway proteins in HepG2 steatosis model, FASN. The class given is cell-based, human. The conditions noted are these: 5 µM, one week. The procedure:
(§2) After steatosis induction with a designated concentration of compounds, whole cell lysate was prepared with CelLytic M (C2978, Sigma-Aldrich) buffer. SDS PAGE was performed using Mini-PROTEAN® TGX™ Precast Gels (Bio-Rad, Hercules, CA, USA) and transferred using the Trans-Blot® Turbo™ Transfer System (Bio-Rad). FASN (ab22759, Abcam), ChREBP (92809, Abcam), PKL (06653, Sigma), PKM (4053S, Cell Signaling Technology, Danvers, MA, USA), β-actin (ab8227, Abcam), and GAPDH (sc-47724, Santa Cruz Biotechnology, Inc., Dallas, TX, USA) were blotted as primary antibodies overnight. Secondary antibodies, Goat Anti-Rabbit HRP (ab205718, Abcam) and goat anti-mouse IgG-HRP (sc2005, Santa Cruz Biotechnology, Inc.), were blotted for one hour. The protein band was detected with ImageQuantTMLAS 500 (29-0050-63, GE Healthcare Bio-Sciences AB, Uppsala, Sweden).
In general terms: Immunoblotting shows a protein as a band on a membrane.

Data set [5] relates to PKM. The data set is described as follows: Western blot of DNL pathway proteins in HepG2 steatosis model, PKM. The class given is cell-based, human. The conditions noted are these: 5 µM, one week. The procedure: as §2
For data set [6], the target named is T1, PKL. The data set is described as follows: Cellular Thermal Shift Assay (CETSA), PKL. The class given is cell-based. The following applies: HepG2 WT cells, 2 h treatment, 60 °C heat shock 5 min, western blot. The procedure: (§3) HepG2 WT cells were trypsinized and transferred into a 1.5 mL tube at 500,000 cells per mL concentration. Compound 15e was treated with 10 µM and 20 µM in the 1.5 mL tube and incubated for 2 h in a 37 °C CO2 incubator. Tubes sustained heat shock at 60 °C for 5 min. with a pre-heated heat block. After centrifugation for heated cells at 13,000 rpm for 1 min, cell pellets were lysed with 50 µL of Native lysis Buffer (ab156035, Abcam). Centrifugation was again used to purify soluble proteins in a lysed solution, and the same volume (9 µL) of each group was analyzed using Western blot.

The test system of data set [7] is PK activity in HepG2 WT cells (PKM and PKL). Nature of the data set: Pyruvate kinase activity assay on compound-treated HepG2 WT cells. The following applies: 20 µM, 4 h. The class given is cell-based, human. The procedure:
as §1

For a further data set, the system named is ChREBP. The data set is described as follows: Western blot of DNL pathway proteins in HepG2 steatosis model, ChREBP. The following applies: 5 µM, one week. The class given is cell-based, human. The procedure:
as §2

Data set [8] relates to PKL. Nature of the data set: Western blot of DNL pathway proteins in HepG2 steatosis model, PKL. The conditions noted are these: 5 µM, one week. The class given is cell-based, human. The procedure: as §2
Data set [9] deals with HepG2 de novo lipogenic (DNL) steatosis model. The data set is described as follows: MTT cell viability assay in HepG2 DNL steatosis model. The class given is cell-based, human. The procedure:
HepG2 wild-type cells and HepG2 PKM CRISPR KO cells were purchased from the genome engineering company Synthego (Menlo Park, CA, USA). Cells were maintained with growth media RPMI 1640 (R2405, Sigma-Aldrich) and supplemented with 10% fetal bovine serum (FBS, F7524, Sigma-Aldrich) and 1% P/S (P4333, Sigma-Aldrich). Steatosis induction media was prepared as DMEM high glucose (D0819, Sigma-Aldrich) with 10% FBS, 1% P/S media supplemented with 10 µg/mL insulin (I9278, Sigma-Aldrich), and 10 µM T0901317 (T2320, Sigma-Aldrich) for one week. HepG2 cells were seeded 6 × 10^4 cells per well into a 96-well plate for TAG and MTT assays after steatosis and 1 × 10^6 cells per well into a 6-well plate for western blot analysis after steatosis. […]
HepG2 cells were seeded at 6 × 10^4 cells per well into 96-well plates and induced steatosis for one week with a designated concentration of small molecules. After steatosis induction, cells were washed with 200 µL of PBS, and triglyceride contents were measured by the Triglyceride Assay Kit-Quantification (ab65336, Abcam) following the manufacturer’s instructions. O.D. values were detected with a microplate reader at 570 nm (Hidex Sense Beta Plus). […] Cell viability was analyzed by measuring the absorbance of the dissolved formazan in a microplate reader at a wavelength of 570 nm with a microplate reader (Hidex Sense Beta Plus).
(Formazan colour is commonly taken as a measure of viable cells.)

Data set [10] addresses T3, PKM (Homo sapiens, UniProt P14618).
T3 construct: HepG2 WT cells were trypsinized and transferred into a 1.5 mL tube; host or cells: HepG2 WT cells
The data set is described as follows: Cellular Thermal Shift Assay (CETSA), PKM. The class given is cell-based. The conditions noted are these: HepG2 WT cells, 2 h treatment, 60 °C heat shock 5 min, western blot. The procedure:
as §3

Data set [11] deals with HepG2 de novo lipogenic (DNL) steatosis model. Nature of the data set: TAG measurement in HepG2 DNL steatosis model. It counts as cell-based, human. The following applies: one week. The procedure:
HepG2 wild-type cells and HepG2 PKM CRISPR KO cells were purchased from the genome engineering company Synthego (Menlo Park, CA, USA). Cells were maintained with growth media RPMI 1640 (R2405, Sigma-Aldrich) and supplemented with 10% fetal bovine serum (FBS, F7524, Sigma-Aldrich) and 1% P/S (P4333, Sigma-Aldrich). Steatosis induction media was prepared as DMEM high glucose (D0819, Sigma-Aldrich) with 10% FBS, 1% P/S media supplemented with 10 µg/mL insulin (I9278, Sigma-Aldrich), and 10 µM T0901317 (T2320, Sigma-Aldrich) for one week. HepG2 cells were seeded 6 × 10^4 cells per well into a 96-well plate for TAG and MTT assays after steatosis and 1 × 10^6 cells per well into a 6-well plate for western blot analysis after steatosis. HepG2 cells were incubated with steatosis-inducing media for one week by 3 days + 2 days + 2 days with a total of three media exchanges.
HepG2 cells were seeded at 6 × 10^4 cells per well into 96-well plates and induced steatosis for one week with a designated concentration of small molecules. After steatosis induction, cells were washed with 200 µL of PBS, and triglyceride contents were measured by the Triglyceride Assay Kit-Quantification (ab65336, Abcam) following the manufacturer’s instructions. O.D. values were detected with a microplate reader at 570 nm (Hidex Sense Beta Plus). A 5 mg/mL MTT (M2128, Sigma-Aldrich) solution in PBS (10 µL) was added to each well for the MTT assay. After 1 h, the MTT solution and all media were removed from the wells. 100 μL of DMSO was added and mixed to dissolve the formazan crystals. Cell viability was analyzed by measuring the absorbance of the dissolved formazan in a microplate reader at a wavelength of 570 nm with a microplate reader (Hidex Sense Beta Plus).

Data set [12] shares this test system. More on the design: method as in PMID 37674987. The conditions noted are these: cited from earlier work.

T1 sequence (P30613 1-543 isoform P30613-2): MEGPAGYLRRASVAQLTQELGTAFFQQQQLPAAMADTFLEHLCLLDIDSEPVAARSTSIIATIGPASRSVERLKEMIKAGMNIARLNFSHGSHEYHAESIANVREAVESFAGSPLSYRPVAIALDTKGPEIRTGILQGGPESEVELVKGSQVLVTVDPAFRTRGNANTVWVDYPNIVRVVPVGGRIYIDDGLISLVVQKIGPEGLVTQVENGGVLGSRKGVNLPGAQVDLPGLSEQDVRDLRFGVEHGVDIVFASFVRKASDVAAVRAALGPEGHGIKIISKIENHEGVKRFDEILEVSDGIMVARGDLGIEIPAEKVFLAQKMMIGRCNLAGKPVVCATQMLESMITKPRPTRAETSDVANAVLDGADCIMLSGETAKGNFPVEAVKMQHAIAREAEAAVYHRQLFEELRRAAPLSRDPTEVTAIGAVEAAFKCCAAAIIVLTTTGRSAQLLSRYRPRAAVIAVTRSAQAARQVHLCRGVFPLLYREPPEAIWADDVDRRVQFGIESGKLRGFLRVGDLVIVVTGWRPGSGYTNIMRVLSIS
T2 sequence (P30613 1-543 isoform P30613-2): as above
T3 sequence (P14618 2-531 limits assumed): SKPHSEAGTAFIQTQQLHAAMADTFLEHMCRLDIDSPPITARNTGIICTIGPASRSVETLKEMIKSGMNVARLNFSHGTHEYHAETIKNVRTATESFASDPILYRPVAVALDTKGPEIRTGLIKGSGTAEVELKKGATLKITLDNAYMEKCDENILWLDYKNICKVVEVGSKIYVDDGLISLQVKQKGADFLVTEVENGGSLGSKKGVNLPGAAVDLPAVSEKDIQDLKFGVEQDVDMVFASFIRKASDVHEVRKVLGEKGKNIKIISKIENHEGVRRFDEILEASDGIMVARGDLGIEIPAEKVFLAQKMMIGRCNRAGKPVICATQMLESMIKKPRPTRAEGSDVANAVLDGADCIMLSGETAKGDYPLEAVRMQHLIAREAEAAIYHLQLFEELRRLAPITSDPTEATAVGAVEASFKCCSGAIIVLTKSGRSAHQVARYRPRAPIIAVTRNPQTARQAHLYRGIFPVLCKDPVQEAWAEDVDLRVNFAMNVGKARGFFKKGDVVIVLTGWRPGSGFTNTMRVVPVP

For `O=S1(=O)c2cc(O)c(O)cc2-c2cc(O)ccc2N1Cc1ccccc1` [15a, 6-benzyl-2,3,9-trihydroxy-6H-dibenzo[c,e][1,2]thiazine 5,5-dioxide], the concentration for half-maximal inhibition (IC50) at PKL [1] amounted to 17.3 µM. The inhibition at 10 µM against PKL [2] was 47.6%.

As to `O=S1(=O)c2cc(O)c(O)cc2-c2cc(O)ccc2N1Cc1ccc(F)cc1` [18a, 6-(4-fluorobenzyl)-2,3,9-trihydroxy-6H-dibenzo[c,e][1,2]thiazine 5,5-dioxide], the 50% inhibitory concentration (IC50) at PKL [1] was 11.5 µM. At 10 µM the inhibition against PKL [2] was 50.8%.

In the case of `O=S(=O)(NCc1ccccc1)c1cc(O)c(O)cc1-c1ccc(O)c(O)c1` [9d, N-benzyl-3′,4,4′,5-tetrahydroxy-[1,1′-biphenyl]-2-sulfonamide], the IC50 on PKL [1] was determined as 4.3 µM. Also, at 10 µM the inhibition against PKL [2] was 40.9%.

With `O=c1oc2c(O)c(O)cc3c(=O)oc4c(O)c(O)cc1c4c23` [Ellagic acid, ellagic acid], in the data set on PKL [3], the “inhibition on whole cell assay” value was “didn't observe inhibition on whole cell assay”. Moreover, the “inhibition of PKL” value in the data set on PKL [4] is 21%.

For `O=S(=O)(NCc1ccc(F)cc1)c1cc(O)c(O)cc1-c1ccc(O)c(O)c1` [12d, N-(4-fluorobenzyl)-3′,4,4′,5-tetrahydroxy-[1,1′-biphenyl]-2-sulfonamide], the IC50 at PKL [1] turned out to be 18.7 µM. Besides, the inhibition at 10 µM against PKL [2] worked out at 44.1%.

Regarding `O=c1oc2cc(O)ccc2c2cc(O)c(O)cc12` [Urolithin C, urolithin C, reference compound], the half-inhibitory concentration (IC50) on PKL [1] is 4.7 µM. In addition, the “PKL inhibition in whole cells” value on PKL in HepG2 KO cells (20 µM, 4 h, HepG2 KO cells) is “did not inhibit PKL activity in cells”. For the same compound, the inhibition at 10 µM on PKL [2] amounted to 33%. For the same compound, the “inhibition of PKL” value with PKL [4] is recorded as 33%.

On to `O=S1(=O)c2cc(O)c(O)cc2-c2cc(O)c(O)cc2N1Cc1ccccc1` [15d, 6-benzyl-2,3,8,9-tetrahydroxy-6H-dibenzo[c,e][1,2]thiazine 5,5-dioxide], for which, at PKL [1], the IC50 is 7.1 µM. Moreover, at PKL [2], the inhibition at 10 µM turned out to be 29.8%.

On to `O=S1(=O)c2cc(O)c(O)cc2-c2ccc(C(F)(F)F)cc2N1Cc1ccc(F)cc1` [18e, 6-(4-fluorobenzyl)-2,3-dihydroxy-8-(trifluoromethyl)-6H-dibenzo[c,e][1,2]thiazine 5,5-dioxide], for which the melting point lay within 189 to 190 °C.

As to `O=S1(=O)c2cc(O)c(O)cc2-c2ccc(C(F)(F)F)cc2N1Cc1ccccc1` [15e, 6-benzyl-2,3-dihydroxy-8-(trifluoromethyl)-6H-dibenzo[c,e][1,2]thiazine 5,5-dioxide], in the data set on FASN, the “reduction in expression level of FASN” value is “up to 79%”. The “protein level of PKM” value with PKM [5] is recorded as “remained unaffected”. For the same compound, on PKL [1], the half-maximal inhibitory concentration (IC50) was determined as 10.8 µM. For the same compound, on PKL [6], the “decrease in PKL level (CETSA)” value is given as 38%. Besides, the “activation of PK activity” value in data set [7] is given as 9%. For the same compound, on PKL in HepG2 KO cells (20 µM in culture media for 4 h, HepG2 KO cells), the activity at 20 µM was 67.1%. Besides, on PKL in HepG2 KO cells (20 µM, 4 h, HepG2 KO cells), the “PKL inhibition in whole cells” value is given as “significant PKL inhibition”. For the same compound, the inhibition at 20 µM at PKL in HepG2 KO cells (20 µM, 4 h, HepG2 KO cells (PKL only), Figure 6a, read-out: inhibition of PK activity) worked out at 25%. In addition, the “protein level of ChREBP” value with ChREBP is “remained unaffected”. Further, in the data set on PKL [8], the “reduction in expression level of PKL” value stood at 45%. In addition, in [9] (5 µM to 0.625 µM, one week), the cytotoxicity entry is on record as “did not show cytotoxicity”. The toxicity entry in data set [9] (10 µM, one-week DNL steatosis procedure) is reported as “high toxicity”. At PKM [10], the “increase in PKM level (CETSA)” value is recorded as 12%. For the same compound, the TAG contents is recorded as 80.4% ± 3.2 in data set [11] (0.625 µM), 62.7% ± 2.9 in data set [11] (1.25 µM), 56.3% ± 1.9 in data set [11] (2.5 µM) and 55.6% ± 2.4 in [11] (5 µM). On PKL [2], this compound showed an inhibition at 10 µM of 42.9%.

Consider `N#Cc1c(NC(=O)c2cccc3ccccc23)sc2c1CCCC2` [JNK-IN-5A], for which, in data set [12], the “effect on TAG” value is on record as “reduced TAG”.
